Laboratory results taken from US5855905A, “Compound preparation for the treatment of hypogonadal men and men with hypophyseal diseases” (priority 1996, dated 1999).

Key:
[1] = Pharmacokinetic behaviour of DHT (patch) in combination with estriol gel, transdermal, 18 healthy young male test persons; settings: human, in vivo, topical or ocular
Protocol: Pharmacokinetic Behaviour of Dihydrotestosterone (DHT) in Combination with Estriol Gel
In a randomized study, the pharmacokinetic behaviour of DHT and estriol after transdermal application was examined in 18 healthy young male test persons.
The DHT patch contains 150 mg of the active ingredient and was left on the test persons' skin for 24 hours. This galenic form releases 6 mg of DHT per day.
The estriol gel contains 5 mg of active ingredient in 0.5 g of gel. This gel formulation was applied one time to 150 cm^2 of skin (forearm).
For analysis, 12 blood samples were taken from each test person after the application over a period of 48 hours.

[2] = system: endogenic testosterone production; settings: cited from earlier work; for inhibition of endogenic testosterone production: Oettel 1993
[3] = Pharmacokinetic behaviour of mesterolone in combination with estradiol valerate, single oral application, 24 healthy young male test persons; settings: human, in vivo
Protocol: Pharmacokinetic Behaviour of Mesterolone in Combination with Estradiol Valerate (EV)
In a randomized study, the kinetic behaviour of mesterolone (25 mg tablet) in combination with EV (1 mg lozenge) after a single oral application was examined in 24 healthy young male test persons.
Each test person was administered mesterolone and EV after a monitored fasting period of 12 hours. After the application, 18 blood samples were taken from each test person over a period of 60 hours.

hypogonadal men = assay: Clinical study in 23 hypogonadal men: clinical findings (efficacy and side effects)
[4] = system: cholesterol, lipoprotein and lipase levels; settings: testosterone esters; cited from earlier work
[5] = Clinical study in hypogonadal men: serum hormone levels
[6] = cited from earlier work
[7] = 5α-dihydrotestosterone vs testosterone; cited from earlier work
[8] = mesterolone 25 mg tablet + EV 1 mg lozenge, single oral

**Q.** For `C[C@]12CC[C@@H]3c4ccc(O)cc4CC[C@H]3[C@@H]1C[C@@H](O)[C@@H]2O` [estriol], which Cmax ([1]; 5 mg) is on record?
**A.** Its Cmax is 0.00882 ± 0.00254 ng/mL.

**Q.** Which “inhibition of endogenic testosterone production” value [2] does the source give for `C[C@H]1CC(=O)C[C@@H]2CC[C@H]3[C@@H]4CC[C@H](O)[C@@]4(C)CC[C@@H]3[C@]21C` [mesterolone] here?
**A.** Its value is “not been observed”.

**Q.** And the concentration at 60 h ([3]; 60 h after single oral mesterolone 25 mg + EV 1 mg)?
**A.** The concentration at 60 h was 0.48 ng/mL.

**Q.** What about the Cmax [3, 8] of the same compound?
**A.** The Cmax was 6.9 ng/mL.

**Q.** And the Tmax [3, 8]?
**A.** Its Tmax is 8.9 h.

**Q.** What about the half-life [3, 8] of the same compound?
**A.** The half-life was 13.2 h.

**Q.** What about the AUC at 60 h ([3]; mesterolone 25 mg tablet + EV 1 mg lozenge, single oral, 60 h) of the same compound?
**A.** Its AUC at 60 h is 177 ng·h/mL.

**Q.** For `C[C@]12CC[C@@H]3c4ccc(O)cc4CC[C@H]3[C@@H]1CC[C@@H]2O` [estradiol, 17β-estradiol], which “inhibition of endogenic testosterone production” value [2] is on record?
**A.** The value was “not been observed”.

**Q.** For `CCCCCCC(=O)O[C@H]1CC[C@H]2[C@@H]3CCC4=CC(=O)CC[C@]4(C)[C@H]3CC[C@]12C` [testosterone enanthate], which “period of reversible inhibition of endogenic testosterone production” value ([2]; patients with working gonadal testosterone biosynthesis (Humpel and Oettel 1994)) is on record?
**A.** Its value is “about 2 weeks”.

**Q.** And the gynaecomastia (hypogonadal men; 12 months)?
**A.** Its gynaecomastia is “Five out of 12”.

**Q.** What about the “increase in the size of the prostatic glands / prostatic hyperplasia” value (hypogonadal men; 12 months) of the same compound?
**A.** The value was “could not be detected”.

**Q.** And the pelage increase (hypogonadal men; 12 months)?
**A.** Its pelage increase is “All men experienced a pelage increase”.

**Q.** What about the “prostate-specific antigen (PSA), change” value (hypogonadal men; 12 months) of the same compound?
**A.** Its value is “slightly up in all patients”.

**Q.** And the volume/weight of testicles (hypogonadal men; 12 months)?
**A.** Its volume/weight of testicles is “the volume of their testicles got smaller”.

**Q.** And the Collagen depletion (hypogonadal men; Arm 1)?
**A.** The Collagen depletion was “not detected”.

**Q.** What about the “thickening of the skin, increase in water retention, tension and elasticity of the tissue” value (hypogonadal men; Arm 1) of the same compound?
**A.** Its value is “All participants in the study showed a thickening of the skin, an increase in water retention, and an improvement of the tension and elasticity of the tissue”.

**Q.** And the “improvement of the morning erection” value (hypogonadal men; Arm 1, 12 months)?
**A.** The value was “Nine out of 12”.

**Q.** What about the “patients free of complaints” value (hypogonadal men; Arm 1, n=12) of the same compound?
**A.** Its value is “Nine”.

**Q.** What about the “increased susceptibility to acne / development of acne” value (hypogonadal men; Arm 1 after 4 months of treatment, Arm 2 12 months) of the same compound?
**A.** Its value is “Seven of the 12”.

**Q.** What about the “voice pitch / voice change” value (hypogonadal men; Arm 1 after 4 months, Arm 2 12 months) of the same compound?
**A.** Its value is “voice pitch of all men lowered towards a bass tone”.

**Q.** And the “increase in penis size” value (hypogonadal men; Arm 1 n=12, Arm 2 n=11, 12 months)?
**A.** The value was 11 men/patients.

**Q.** What about the bone density (hypogonadal men; after 6 months of treatment) of the same compound?
**A.** Its bone density is “All patients showed an apparent increase in bone density”.

**Q.** What about the symptoms of andropause (hypogonadal men; hot flashing, exhaustion, weakness of concentration, reduced efficiency, disgruntlement, disturbances of libido and potency) of the same compound?
**A.** The symptoms of andropause was “became less frequent”.

**Q.** And the “effect on HDL cholesterol” value [4]?
**A.** The value was “can cause a minor suppression”.

**Q.** What about the “effect on total and LDL cholesterol levels” value [4] of the same compound?
**A.** Its value is “only have a minor effect”.

**Q.** What about the “LH levels in the serum / LH synthesis” value ([5]; 12 months) of the same compound?
**A.** The value was “reduced in the serum of all participants”.

**Q.** What about the “maximum values compared with testosterone levels in healthy men” value ([5]; Arm 1, 250 mg i.m.) of the same compound?
**A.** The value was “significant increase”.

**Q.** And the cumulation ([5]; Arm 1, testosterone, subsequent applications)?
**A.** Its cumulation is “no cumulation”.

**Q.** For `C[C@]12CC[C@H]3[C@@H](CCC4=CC(=O)CC[C@@]43C)[C@@H]1CC[C@@H]2O` [testosterone], which “estradiol levels in the plasma” value ([6]; intramuscular injection (Tenover 1992)) is on record?
**A.** The value was “doubled”.

**Q.** What about the “increase of estradiol levels in the plasma” value ([6]; percutaneous application (Kuhn 1986)) of the same compound?
**A.** The value was 70%.

**Q.** With `C[C@]12CCC(=O)C[C@@H]1CC[C@@H]1[C@@H]2CC[C@]2(C)[C@@H](O)CC[C@@H]12` [DHT, 5α-dihydrotestosterone] as the compound, how does the “inhibition of endogenic testosterone production” value [2] read?
**A.** Its value is “not been observed”.

**Q.** And the “activity relative to testosterone” value [7]?
**A.** The value was “about twice as active as testosterone”.

**Q.** And the Cmax ([1]; 150 mg)?
**A.** Its Cmax is 4.51 ± 1.23 ng/mL.
